Experiments:
[1] = kept at 4-8° C
Description: Unused diluted material could be stored for up to 7 days if kept at 4-8° C. c) Experimental Procedure

[2] = tested on: endogenous JNK in HepG2 cells; test: AlphaScreen, endogenous IL-1 dependent JNK activity in HepG2 cells; assay type: cell-based; conditions: FIG. 3 panel d
Description: HepG2 cells were seeded at 3,000 cells/well the day prior the experiment. Then, increasing concentrations of either interleukin-1 [IL-1 beta v)] or tumor necrosis factor [TNFalpha (•)] (a) were added to activate JNK for 30 minutes. Cells were lysed in 20 mM Hepes, 0.5% Tween pH 7.4 and processed for AlphaScreen JNK. (b) Z′ for the JNK activity induced by 10 ng/ml IL-1 and measured in 384 wells/plate (n=96). (c) Inhibition of endogenous IL-1 beta-induced JNK activity with chemical JNK inhibitors [staurosporin (°) and SP600125 (•)]. (d) Effect of peptidic inhibitors L-TAT-IB1(s) according to SEQ ID NO: 9 [here abbreviated as L-JNKi (ν)) and D-TAT-IB1(s) according to SEQ ID NO: 11 (here abbreviated as D-JNKi (♦)) and JBDs (•) (corresponds to L-JNKI without the TAT sequence)] on IL-1 dependent JNK activity. All panels are representative of three independent experiments (n=3). […]
Principle: AlphaScreen is a non-radioactive bead-based technology used to study biomolecular interactions in a microplate format. The acronym ALPHA stands for Amplified Luminescence Proximity Homogenous Assay. […]
Kinase reagents (B-GST-cJun, anti P-cJun antibody and active JNK3) were first diluted in kinase buffer (20 mM Tris-HCl pH 7.6, 10 mM MgCl2, 1 mM DTT, 100 μM Na3VO4, 0.01% Tween-20) and added to wells (15 μl). […] AlphaScreen signal was analyzed directly on the Fusion or En Vision apparatus.

[3] = tested on: recombinant JNK1, JNK2 and JNK3; test: Solid phase kinase assay, phosphorylation of c-Jun, ATF2 and Elk1 by recombinant JNKs; assay type: biochemical; conditions: GST-Jun (aa 1-73), JNK1, JNK2, JNK3, 0-250 μM dosage study
Description: The effects of the peptides on JNKs-mediated phosphorylation of their target transcription factors were investigated in vitro. Recombinant and non activated JNK1, JNK2 and JNK3 were produced using a TRANSCRIPTION AND TRANSLATION rabbit reticulocyte lysate kit (Promega) and used in solid phase kinase assays with c-Jun, ATF2 and Elk1, either alone or fused to glutathione-S-transferase (GST), as substrates. Dose response studies were performed wherein L-TAT or L-TAT-IB1(s) peptides (0-25 μM) were mixed with the recombinant JNK1, JNK2, or JNK3 kinases in reaction buffer (20 mM Tris-acetate, 1 mM EGTA, 10 mM p-nitrophenyl-phosphate (pNPP), 5 mM sodium pyrophosphate, 10 mM p-glycerophosphate, 1 mM dithiothreitol) for 20 minutes. The kinase reactions were then initiated by the addition of 10 mM MgCl2 and 5 pCi ^33P-dATP and 1 μg of either GST-Jun (aa 1-89), GST-AFT2 (aa 1-96) or GST-ELK1 (aa 307-428). GST-fusion proteins were purchased from Stratagene (La Jolla, Calif.).
Ten μL of glutathione-agarose beads were also added to the mixture. Reaction products were then separated by SDS-PAGE on a denaturing 10% polyacrylamide gel. Gels were dried and subsequently exposed to X-ray films (Kodak). […] The ability of D-TAT, D-TAT-IB1(s) and L-TAT-IB1(s) peptides (0-250 μM dosage study) to inhibit GST-Jun (aa 1-73) phosphorylation by recombinant JNK1, JNK2, and JNK3 by were analyzed as described above. […]

Q: What does the source list for `CC(C)C[C@@H](NC(=O)[C@@H](Cc1ccccc1)NC(=O)[C@H]1CCCN1C(=O)[C@@H](CCC(N)=O)NC(=O)[C@H](NC(=O)[C@H]1CCCN1C(=O)[C@@H](CCCNC(=N)N)NC(=O)[C@@H](CO)NC(=O)[C@@H](CCC(N)=O)NC(=O)[C@H](N)CC(=O)O)C(C)C)C(=O)N[C@H](CC(N)=O)C(=O)N[C@H](CC(C)C)C(=O)N[C@@H](C(=O)N[C@@H](C(=O)N1CCC[C@@H]1C(=O)N[C@H](CCCNC(=N)N)C(=O)N[C@H](CCCCN)C(=O)N1CCC[C@@H]1C(=O)N[C@H](CCCNC(=N)N)C(=O)N1CCC[C@@H]1C(=O)N1CCC[C@@H]1C(=O)N[C@H](CCCNC(=N)N)C(=O)N[C@H](CCCNC(=N)N)C(=O)N[C@H](CCCNC(=N)N)C(=O)N[C@H](CCC(N)=O)C(=O)N[C@H](CCCNC(=N)N)C(=O)N[C@H](CCCNC(=N)N)C(=O)N[C@H](CCCCN)C(=O)N[C@H](CCCCN)C(=O)N[C@H](CCCNC(=N)N)C(=O)NCC(=O)O)[C@H](C)O)[C@H](C)O` [XG-102]?
A: storage of unused diluted material [1]: up to 7 days; inhibition of IL-1 dependent endogenous JNK activity [2]: effectively inhibits JNK activity, even better than L-TAT-IB1(s); efficiency in decreasing JNK-mediated phosphorylation of c-Jun, fold less than L-TAT-IB1(s) [3]: 10-20 fold
